This passage reports EC50, GI50 and IC50 results from US9561228B2 (Celgene Avilomics Research, Inc., priority 2013, dated 2017).

Like-named read-outs stand apart in the source and are kept apart here.

Test [1] relates to ERK1/2 phosphorylation of p90RSK in HT29 cells. The experiment in a line: pRSK MSD Assay in HT29 cells. It is filed as cell-based. The following applies: Homo sapiens, HT-29, read-out: ERK1/ERK2 PRSK MSD HT29 EC50. The procedure, abridged:
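Phospho-RSK level, read by electrochemiluminescence on RSK-antibody-coated MSD plates with a phospho-RSK/Sulfo-tag detection pair, reports cellular ERK1/2 activity. HT29 cells, kept overnight in 0.1% FBS medium, were exposed to compound for 120 min at 37° C before lysis.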

For test [2], the system named is HT-29 cells (colorectal adenocarcinoma). The experiment in a line: Inhibition of cancer cell proliferation, HT-29 (CellTiterGlo, 72 hours). It is filed as cell-based. To be noted: Homo sapiens. The procedure, abridged: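 Proliferation over 72 h at 37° C was read by CellTiterGlo luminescence, translated to cell counts with a cell-density standard curve (390–50,000 cells). Compound added as 3-fold dilutions from a 5,000 nM two-fold stock to 3000 seeded HT-29 cells; GI50 from percent inhibition relative to untreated wells.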
On the technique in general: ATP-based viability assays read luminescence as a measure of living cells.

Test [3] deals with A375 cells (malignant melanoma). The experiment in a line: Inhibition of cancer cell proliferation, A375 (CellTiterGlo, 72 hours). Type of test: cell-based. To be noted: Homo sapiens, A-375. The procedure:
Measurement of Inhibition of Cancer Cell Proliferation (A375/Malignant Melanoma)
The following protocol used an A375 cell line, which cell line is a model for malignant melanoma. A375 cells were split and 3000 cells in […] of growth medium were added per well of a flat-bottom 96-well plate. A two-fold test compound solution in serum-free DMEM was made, starting at 5,000 nM. Then, 3-fold serial dilutions were made across the plate from well 1 to well 11. Well 12, the last well in a row on the plate, was left as untreated control. 100 μl compound solutions were then transferred to the wells, so the total volume of media was 200 μl per well. Plates were returned to a 37° C. incubator, and the cells were cultured for 72 hours. To measure cell proliferation after 72 hours, media was discarded from the plates, 50 μl/well of fresh medium was added, and 50 μl CellTiterGlo solution was added (Promega Cat#G7573). The plate was covered with a dark lid and incubated for 10 min. A white sealing tape was applied to the bottom of the plate, and the plate was read in a luminescence plate reader. […] 50 μl CellTiterGlo was added per well, and the plate was read in a luminescence plate reader after 10 min. The reading was plotted vs. cell number to generate a standard curve and the equation of the curve fit. The compound-treated sample luminescence readings were converted to cell numbers using the curve-fit equation. The percent of inhibition, using untreated control as 100% growth, was then calculated. GI50 was then calculated by GraphPad Prism.

The target in the next test is T1, MEK1 activated ERK1 (Homo sapiens, UniProt P27361).
T1 construct: purchased Millipore (Billerica, Mass.) 14-439-K
T1 sequence (P27361 whole entry): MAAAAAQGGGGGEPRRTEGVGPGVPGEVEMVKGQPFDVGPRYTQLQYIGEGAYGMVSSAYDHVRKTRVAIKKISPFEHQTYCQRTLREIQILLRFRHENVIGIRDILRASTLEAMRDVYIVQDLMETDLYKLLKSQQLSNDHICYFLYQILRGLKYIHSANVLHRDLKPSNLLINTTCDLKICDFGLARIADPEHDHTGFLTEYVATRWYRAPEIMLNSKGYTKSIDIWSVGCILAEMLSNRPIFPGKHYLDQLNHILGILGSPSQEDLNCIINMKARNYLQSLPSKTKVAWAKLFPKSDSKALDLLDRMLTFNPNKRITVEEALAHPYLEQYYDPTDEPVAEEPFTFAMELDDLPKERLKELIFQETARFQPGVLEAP
In words: Omnia continuous-read kinase assay for potency against MEK1 activated ERK1. It is filed as biochemical. The method in brief: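 Apparent IC50 came from initial reaction slopes (RFU vs time) plotted against log inhibitor with a variable-slope fit. Reactions were started with ERK1 (4 nM final) added to 50 μM ATP, roughly at its appKM, and 10 μM Sox-conjugated ST17 peptide in 20 mM Tris pH 7.5, 5 mM MgCl2. Fluorescence was monitored every 71 seconds.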

Test [4] concerns ERK1/2 phosphorylation of p90RSK in A375 cells. The experiment in a line: Detection of total and phosphor-RSK by MSD ELISA (A375). It is filed as cell-based. To be noted: Homo sapiens, A-375, read-out: ERK1/ERK2 PRSK A375 EC50. The procedure: Detection of Total and Phosphor-RSK by MSD ELISA (A375)
(§1) The protocol below describes an assay to measure the kinase activity of ERK1/2 to phosphorylate a substrate, p90RSK, in the presence or absence of a test compound.
A375 cells were grown in DMEM/10% FBS. Twenty four hours prior to the assay, 50,000 cells per well were plated in a 96 well flat bottom plate. Once cells attached to the plate, the medium was replaced with 100 ul of DMEM/0.1% FBS. Cells were cultured overnight in an incubator at 37° C.
Compound stock solutions of 10 mM in DMSO were prepared. 1000× dilutions were then prepared in DMSO. 1 uL of DMSO solution was then transferred to 1 ml DMEM/0.1% FBS in a deep well plate. Cell plate media was discarded, followed by addition of 100 uL of the compound-containing media. The preparation was incubated at 37° C. for 2 hrs.
Cell lysates were prepared as described below.
pRSK or Total RSK MSD Assay
MSD plates: Blank MSD plates were coated with 30 uL capture antibody (BD 610226) at a final concentration of 1 ug/mL in PBS. Both pRSK and total RSK MSD assays used the same capture antibody at the same concentration. Antibody stock concentration was 250 ug/mL. Once antibody solution was added to the MSD plate, the sides were tapped to be certain it was coated completely (visual inspection). It was then covered and placed at 4° C. overnight on a level surface.
Block MSD Plate: The coating antibody was removed and the plate was washed on a plate washer in MSD wash buffer. The last bit of wash solution was tapped out and 150 uL/well of 3% BSA in MSD wash buffer was added in. The preparation was placed on a shaker at room temperature for at least an hour.
Add samples: Media was removed from compound-treated cells and replaced with 55 uL/well MSD cell lysis buffer containing protease and phosphotase I & II inhibitors. The preparation was incubated on a shaker in a cold room for 30-45 min. The blocked MSD plate was washed a on plate washer, tapping out the last bit of wash solution, followed by addition of 50 uL (of the 55 ul) cell lysate in a well-well transfer. The preparation was covered and incubated on a shaker at room temp for 2 hours. The lysate was removed, washed on a plate washer 3 times, and the last bit of wash buffer was tapped out and replace with 25 uL/well detection antibody (described below).
For pRSK detection, a pRSK antibody stock of 21 ug/mL was prepared as follows: 1 ug/mL pRSK Ser380 antibody (Cell Signaling Technology, Cat. #9335)+1:750 anti-rabbit SulfoTag (Mesoscale Discovery, Cat. # R32AB-1) in 1% BSA in MSD wash buffer.
(§2) For total RSK detection, a total RSK antibody stock of 200 ug/mL was prepared as follows: 1 ug/mL total RSK (Santa Cruz sc-231G) antibody+1:750 anti-goat SulfoTag (from MSD, R32AG-1) in 1% BSA in MSD wash buffer.
The plate was incubated for 1 hr at room temperature on a shaker, followed by three washings. The last bit of wash buffer was tapped out. 150 uL/well 1×MSD Read buffer was added and the plate was then analyzed.
A general note: In an ELISA, binding on a coated surface is turned into a signal by an enzyme label.

In test [5] the test system is ERK1/2 phosphorylation of p90RSK in HCT116 cells. In words: Detection of total and phospho-RSK by MSD ELISA (HCT116). Type of test: cell-based. To be noted: Homo sapiens, HCT-116, read-out: ERK1/ERK2 PRSK HCT116 EC50. The protocol: Detection of Total and Phospho-RSK by MSD ELISA (HCT116)
as §1
HCT116 cells were grown in RPMI/10% FBS. Prior to the assay, 50,000 cells per well were plated in a 96 well flat bottom plate. Cells were cultured overnight in an incubator at 37° C.
Compound stocks were 10 mM in DMSO. A 1000× dilution was made in DMSO. 1 uL of the DMSO solution was transferred to 1 ml RPMI/10% FBS in a deep well plate. Media in the cell plate was discarded, and 100 uL of the compound-containing media was added. The preparation was incubated at 37° C. for 2 hrs.
Preparation of cell lysates are described below.
pRSK or total RSK MSD Assay
MSD plates: Blank MSD plates were coated with 30 uL capture antibody (BD 610226) at a final concentration of 1 ug/mL in PBS. Both pRSK and total RSK MSD assays used the same capture antibody at the same concentration. Antibody stock concentration was 250 ug/mL. Once antibody solution was added to MSD plate, the sides were tapped to be certain it was coated completely (visual inspection). It was then covered and placed at 4° C. overnight on a level surface.
Block MSD Plate: The coating antibody was removed and the plate was washed on a plate washer in MSD wash buffer. The last bit of wash solution was tapped out and 150 uL/well 3% BSA (MSD Blocker A) in MSD wash buffer was added. The preparation was placed on a shaker at room temperature for at least an hour.
Add samples: Media was removed from compound-treated cells and replaced with 55 uL/well MSD cell lysis buffer containing protease and phosphotase I & II inhibitors. The preparations was incubate on a shaker in a cold room for 30-45 min. The blocked MSD plate was washed on a plate washer, and the last bit of wash solution was tapped out. Next was added 50 uL (of the 55 uL) cell lysate in a well-well transfer. The preparation was covered and incubated on shaker at room temp for 2 hours. The lysate was then removed and washed on plate washer 3 times. The last bit of wash buffer was then tapped out and replaced with 25 uL/well detection antibody (described below).
For pRSK detection, a pRSK antibody stock of 21 ug/mL was prepared as follows: 1 ug/mL pRSK Ser380 antibody (Cell Signaling Technology, Cat. #9335)+1:750 anti-rabbit SulfoTag (from MSD, R32AB-1) in 1% BSA in MSD wash buffer.
as §2
The plate was incubated for 1 hr at room temperature on a shaker, followed by three washes. The last bit of wash buffer was tapped out. Next, 150 uL/well 1×MSD Read buffer was added and the plate was analyzed by the MSD reader.

A word on the GI50: it is the concentration giving 50% growth inhibition. On to `C=CC(=O)Nc1ccccc1Nc1nc(N[C@H]2CCCN(C(N)=O)C2)ncc1C(F)(F)F` [Compound I-18, (S)-3-((4-((2-Acrylamidophenyl)amino)-5-(trifluoromethyl)pyrimidin-2-yl)amino)piperidine-1-carboxamide], for which the EC50 in test [1] lay within 101 to 500 nM. The 50% growth inhibitory concentration (GI50) in test [2] and in test [3] was 101 to 500 nM each time.
Take `C=CC(=O)Nc1ccccc1Nc1nc(NC2CCC(=O)CC2)ncc1C(F)(F)F` [Compound I-23, N-(2-((2-((4-Oxocyclohexyl)amino)-5-(trifluoromethyl)pyrimidin-4-yl)amino)phenyl)acrylamide]: the GI50 is under 100 nM in test [2] and 101 to 500 nM in test [3].
Take `C=CC(=O)Nc1ccc(C)cc1Nc1nc(N[C@H]2CCCN(C(=O)CO)C2)ncc1C(F)(F)F` [Compound I-37, (S)—N-(2-((2-((1-(2-hydroxyacetyl)piperidin-3-yl)amino)-5-(trifluoromethyl)pyrimidin-4-yl)amino)-4-methylphenyl)acrylamide]: in test [1], the EC50 is under 100 nM. Further, the GI50 in test [2] and in test [3] was under 100 nM each time.
Consider `C=CC(=O)Nc1cc(C)ccc1Nc1nc(N[C@H]2CCCN(C(=O)CC)C2)ncc1C(F)(F)F` [Compound I-41, (S)—N-(5-Methyl-2-((2-((1-propionylpiperidin-3-yl)amino)-5-(trifluoromethyl)pyrimidin-4-yl)amino)phenyl)acrylamide], for which the GI50 in test [2] and in test [3] was under 100 nM in each case.
Regarding `C/C=C/S(=O)(=O)Nc1cc(F)ccc1Nc1nc(N[C@H]2CCCN(C(=O)CO)C2)ncc1C(F)(F)F` [Compound I-48, (S,E)-N-(5-Fluoro-2-((2-((1-(2-hydroxyacetyl)piperidin-3-yl)amino)-5-(trifluoromethyl)pyrimidin-4-yl)amino)phenyl)prop-1-ene-1-sulfonamide], the 50% growth inhibitory concentration (GI50) in test [2] and in test [3] was over 1000 nM in each case.
Turning to `C=CC(=O)Nc1ccccc1Nc1nc(NC2CCOCC2)ncc1Cl` [Compound I-108, N-(2-((5-chloro-2-((tetrahydro-2H-pyran-4-yl)amino)pyrimidin-4-yl)amino)phenyl)acrylamide], the GI50 in test [2] was under 100 nM; in test [3], 101 to 500 nM.
A word on the IC50: it is the point on the concentration scale where inhibition reaches its midpoint. On to `C=CC(=O)Nc1cc(C)ccc1Nc1nc(N[C@H]2CCN(S(=O)(=O)C=C)C2)ncc1C(F)(F)F` [Compound I-279, (S)—N-(5-Methyl-2-((5-(trifluoromethyl)-2-((1-(vinylsulfonyl)pyrrolidin-3-yl)amino)pyrimidin-4-yl)amino)phenyl)acrylamide], for which the IC50 on MEK1 activated ERK1 (MEK1 activated ERK1, ATP at KM, read-out: ERK1 Omnia WT ATP KM IC50) was in the range of 501 to 999 nM. Besides, the EC50 in test [4] and in test [5] was over 1000 nM throughout.
As for `C=CC(=O)Nc1cc(C)ccc1Nc1nc(Nc2cc(OC)ncc2CO)ncc1C(F)(F)F` [Compound I-428, N-(2-((2-((5-(hydroxymethyl)-2-methoxypyridin-4-yl)amino)-5-(trifluoromethyl)pyrimidin-4-yl)amino)-5-methylphenyl)acrylamide], the half-maximal inhibitory concentration (IC50) at MEK1 activated ERK1 (ATP at KM, WT) was over 1000 nM. For the same compound, the EC50 in test [4] and in test [5] was 101 to 500 nM throughout.
Regarding `C=CC(=O)Nc1cc(C)ccc1Nc1nc(Nc2cc(OC)ncc2CF)ncc1C(F)(F)F` [Compound I-429, N-(2-((2-((5-(fluoromethyl)-2-methoxypyridin-4-yl)amino)-5-(trifluoromethyl)pyrimidin-4-yl)amino)-5-methylphenyl)acrylamide], the 50% inhibitory concentration (IC50) at MEK1 activated ERK1 (ATP at KM, WT) was over 1000 nM. In addition, the results for the EC50 in test [4] and in test [5] were 101 to 500 nM and 501 to 999 nM, respectively.
On the same counts, the results for `C=CC(=O)Nc1cc(C)ccc1Nc1nc(Nc2cc(OC)nn2C)ncc1C(F)(F)F` [Compound I-430, N-(2-((2-((3-methoxy-1-methyl-1H-pyrazol-5-yl)amino)-5-(trifluoromethyl)pyrimidin-4-yl)amino)-5-methylphenyl)acrylamide] are 501 to 999 nM, 501 to 999 nM and 501 to 999 nM.
